Laboratory results: patent US20110123654A1, “SYNERGISTIC ENHANCEMENT OF CELLULAR ERGOGENIC NUTRIENT UPTAKE, LIKE CREATINE OR CARNITINE, WITH TARRAGON” (priority 2008, published 2011)

Test system: blood glucose levels
Assay: Glucose challenge test in rats
Type: in vivo
Settings: compared to control; p.o. 30 min before i.p. glucose challenge; non-fasted male Wistar rats
Protocol: A common way of testing for an effect of extracts or new chemical entities on blood glucose levels is the glucose challenge test (Verspohl, E. J.: Recommended testing in diabetes research. Planta Med 68 (7): 581-90, 2002) in which rats are given the extract, control, or a known antidiabetic substance with challenge an intraperitoneal (i.p.) dose of glucose. The extracts or extract PLUS creatine are given orally 30 min. before the glucose challenge. Blood samples are taken sublingual at time points 0, 15, 30, 60, and 120 minutes for the glucose challenge. This sampling scheme ensures to monitor both effects of extracts on the blood glucose levels after glucose challenge closely enough.
Male non-fasted Wistar rats weighing 250-300 g were purchased from Harlan (Indianapolis, Ind., U.S.A). […]
Blood was drawn at the appropriate time points from the sublingual vein after a short halothane anesthesia and stored at 4° C. with addition of heparin. […] The supernatant plasma was taken and analyzed using an autoanalyzer (Merck, Darmstadt). […]
Both percent and AUC data were analyzed by one-way ANOVA and Student-Newman-Keuls Multiple Comparison Test using Graphpad 4.0 Software, San Diego, USA. The AUC (area under the curve) was calculated using the trapezoidal rule without extensions beyond the last time point measured.

For `CN(CC(=O)O)C(=N)N.O` [creatine monohydrate], which glucose disposal is on record?
Its glucose disposal is “no effect”.
